Measured values taken from patent US20240270679A1, “LIPIDS FOR USE IN LIPID NANOPARTICLE FORMULATIONS” (Acuitas Therapeutics, Inc., priority 2022, published 2024).
Marks after values point to notes of the source that are not given here.

Columns and labels:
human IgG in mouse serum = experiment: Immunoglobulin G (IgG) mRNA in vivo evaluation using lipid nanoparticle compositions (human IgG ELISA); set-up: species or system mice; conditions: tail vein injection, μg IgG/mL serum 24 hours after administration; for Serum IgG @ 0.3 mg/kg: 0.3 mg mRNA/kg; for Serum IgG @ 1.0 mg/kg: 1.0 mg mRNA/kg
Description: (§1) A lipid of structure (I), DSPC, cholesterol and PEG-lipid are solubilized in ethanol at a molar ratio of 50:10:38.5:1.5 or 47.5:10:40.7:1.8. Lipid nanoparticles (LNP) are prepared at a total lipid to mRNA weight ratio of approximately 10:1 to 40:1. Briefly, the mRNA is diluted to 0.2 mg/mL in 10 to 50 mM citrate buffer, pH 4 or 10 to 25 mM acetate buffer, pH 4. Syringe pumps are used to mix the ethanolic lipid solution with the mRNA aqueous solution at a ratio of about 1:5 to 1:3 (vol/vol) with total flow rates above 15 mL/min. The ethanol is then removed, and the external buffer replaced with PBS by dialysis. Finally, the lipid nanoparticles are filtered through a 0.2 µm pore sterile filter.
Studies are performed in 6-8-week-old CD-1/ICR mice (Envigo) according to guidelines established by an institutional animal care committee (ACC) and the Canadian Council on Animal Care (CCAC). Varying doses of mRNA-lipid nanoparticle are systemically administered by tail vein injection and animals euthanized at a specific time point (e.g., 24 hours) post-administration. The whole blood is collected, and the serum subsequentially separated by centrifuging the tubes of the whole blood at 2000×g for 10 minutes at 4° C. and stored at −80° C. until use for analysis.
For immunoglobulin G (IgG) ELISA (Life Diagnostics Human IgG ELISA kit), the serum samples are diluted at 100 to 15000 folds with 1× diluent solution. 100 μL of diluted serum is dispensed into anti-human IgG coated 96-well plate in duplicate alongside human IgG standards and incubated in a plate shaker at 150 rpm at 25° C. for 45 minutes. The wells are washed 5 times with 1× wash solution using a plate washer (400 μL/well). 100 μL of HRP conjugate is added into each well and incubated in a plate shaker at the same condition above. The wells are washed 5 times again with 1× wash solution using a plate washer (400 μL/well). 100 μL of TMB reagent is added into each well and incubated in a plate shaker at the same condition above. The reaction is stopped by adding 100 μL of Stop solution to each well. The absorbance is read at 450 nm (A450) with a microplate reader. The amount of human IgG in mouse serum is determined by plotting A450 values for the assay standard against human IgG concentration.
(§2) Representative compounds of the disclosure shown in Table 2 were formulated using the following molar ratio: 50% cationic lipid/10% distearoylphosphatidylcholine (DSPC)/38.5% Cholesterol/1.5% PEG lipid 2-[2-(ω-methoxy(polyethyleneglycol2000)ethoxy]-N,N-ditetradecylacetamide) or 47.5% cationic lipid/10% DSPC/40.7% Cholesterol/1.8% PEG lipid. Activity was determined by measuring luciferase expression in the liver 4 hours following administration via tail vein injection as described in Example 1 or by measuring the amount of human IgG in mouse serum as described in Example 2. The activity was compared at a dose of 1.0 or 0.5 or 0.3 mg mRNA/kg and expressed as ng luciferase/g liver measured 4 hours after administration, as described in Example 1 or as μg IgG/mL serum measured 24 hours after administration, as described in Example 2. Compound numbers in Table 2 refer to the compound numbers of Table 1.

[1] = Determination of pKa of formulated lipids (TNS fluorescence assay in lipid nanoparticles); format: physicochemical; conditions: lipid nanoparticles (compound/DSPC/cholesterol/PEG-lipid), lipid formulated in LNP (cationic lipid/DSPC/cholesterol/PEG-lipid), pH of half-maximal fluorescence
Description: As described elsewhere, the pKa of formulated lipids is correlated with the effectiveness of LNPs for delivery of nucleic acids (see Jayaraman et al, Angewandte Chemie, International Edition (2012), 51(34), 8529-8533; Semple et al, Nature Biotechnology 28, 172-176 (2010)). In some embodiments, the preferred range of pKa is ˜5 to ˜7. The pKa of each lipid is determined in lipid nanoparticles using an assay based on fluorescence of 2-(p-toluidino)-6-napthalene sulfonic acid (TNS). Lipid nanoparticles comprising compound of structure (I)/DSPC/cholesterol/PEG-lipid (50/10/38.5/1.5 or 47.5:10:40.7:1.8 mol %) in PBS at a concentration of 0.4 mM total lipid are prepared using the in-line process as described in Example 1. TNS is prepared as a 100 μM stock solution in distilled water. Vesicles are diluted to 24 μM lipid in 2 mL of buffered solutions containing 10 mM HEPES, 10 mM MES, 10 mM ammonium acetate, and 130 mM NaCl, where the pH ranged from 2.5 to 11. An aliquot of the TNS solution is added to give a final concentration of 1 μM and following vortex mixing fluorescence intensity is measured at room temperature in a SLM Aminco Series 2 Luminescence Spectrophotometer using excitation and emission wavelengths of 321 nm and 445 nm. A sigmoidal best fit analysis is applied to the fluorescence data and the pKa is measured as the pH giving rise to half-maximal fluorescence intensity.

[2] = system: luciferase expression in the liver; experiment: Luciferase mRNA in vivo evaluation using lipid nanoparticle compositions (liver luciferase expression); set-up: species or system mice; conditions: tail vein injection, ng luciferase/g liver 4 hours after administration; for Liver Luc @ 0.3 mg/kg: 0.3 mg mRNA/kg; for Liver Luc @ 1.0 mg/kg: 1.0 mg mRNA/kg
Description: as §1
Studies are performed in 6-8-week-old female C57BL/6 mice (Charles River) or 8-10-week-old CD-1 (Harlan) mice (Charles River) according to guidelines established by an institutional animal care committee (ACC) and the Canadian Council on Animal Care (CCAC). Varying doses of mRNA-lipid nanoparticle are systemically administered by tail vein injection and animals euthanized at a specific time point (e.g., 4 hours) post-administration. Liver and spleen are collected in pre-weighed tubes, weights determined, immediately snap frozen in liquid nitrogen, and stored at −80° C. until processing for analysis.
For liver, approximately 50 mg is dissected for analyses in a 2 mL FastPrep tubes (MP Biomedicals, Solon OH). ¼″ ceramic sphere (MP Biomedicals) is added to each tube and 500 μL of Glo Lysis Buffer—GLB (Promega, Madison WI) equilibrated to room temperature is added to liver tissue. Liver tissues are homogenized with the FastPrep24 instrument (MP Biomedicals) at 2×6.0 m/s for 15 seconds. Homogenate is incubated at room temperature for 5 minutes prior to a 1:4 dilution in GLB and assessed using SteadyGlo Luciferase assay system (Promega). Specifically, 50 μL of diluted tissue homogenate is reacted with 50 μL of SteadyGlo substrate, shaken for 10 seconds followed by 5-minute incubation and then quantitated using a CentroXS^3 LB 960 luminometer (Berthold Technologies, Germany). The amount of protein assayed is determined by using the BCA protein assay kit (Pierce, Rockford, IL). Relative luminescence units (RLU) are then normalized to total μg protein assayed. To convert RLU to ng luciferase a standard curve is generated with QuantiLum Recombinant Luciferase (Promega).
The FLuc mRNA (L-6107) from Trilink Biotechnologies will express a luciferase protein, originally isolated from the firefly, photinus pyralis. FLuc is commonly used in mammalian cell culture to measure both gene expression and cell viability. It emits bioluminescence in the presence of the substrate, luciferin. This capped and polyadenylated mRNA is fully substituted with 5-methylcytidine and pseudouridine.
as §2

Row | SMILES | pKa [1] | Serum IgG @ 0.3 mg/kg (human IgG in mouse serum) | Serum IgG @ 1.0 mg/kg (human IgG in mouse serum) | Liver Luc @ 0.3 mg/kg [2] | Liver Luc @ 1.0 mg/kg [2] | Liver Luc, determined at 0.5 mg/kg ([2]; 0.5 mg mRNA/kg (footnote *))
1 | CCCCCCCC(=O)NCCCCN(C)CCN(CCCCCCCCCOC(=O)C(CCCC)CCCCCC)CCCCCCCCCOC(=O)C(CCCC)CCCCCC (centres unmarked) [Compound I-6, ((2-(methyl(4-octanamidobutyl)amino)ethyl)azanediyl)bis(nonane-9,1-diyl)bis(2-butyloctanoate)] | 6.56 |  |  | 12241 ± 3108 ng/g | 67044 ± 44033 ng/g | 
2 | CCCCCCCCC(CCCCCC)COC(=O)CCCCCN(CCCCCC(=O)OCC(CCCCCC)CCCCCCCC)CCN(C)CCCCNC(=O)CCCCCCC (centres unmarked) [Compound I-1, bis(2-hexyldecyl) 6,6′-((2-(methyl(4-octanamidobutyl)amino)ethyl)azanediyl)dihexanoate] | 6.64 |  |  | 5497 ± 1457 ng/g | 13160 ± 5805 ng/g | 
3 | CCCCCCCCC(=O)NCCCN(C)CCN(CCCCCCCC(=O)OCC(CCCCCC)CCCCCCCC)CCCCCCCC(=O)OCC(CCCCCC)CCCCCCCC (centres unmarked) [Compound I-4, bis(2-hexyldecyl) 8,8′-((2-(methyl(3-nonanamidopropyl)amino)ethyl)azanediyl)dioctanoate] | 6.7 |  |  | 7747 ± 1565 ng/g | 24964 ± 8175 ng/g | 
4 | CCCCCCCCCCCCCC(=O)NCCCCN(C)CCN(CCCCCC(=O)OCC(CCCCCC)CCCCCCCC)CCCCCC(=O)OCC(CCCCCC)CCCCCCCC (centres unmarked) [Compound I-3, bis(2-hexyldecyl) 6,6′-((2-(methyl(4-tetradecanamidobutyl)amino)ethyl)azanediyl)dihexanoate] | 6.7 |  |  |  |  | 31 ± 6* ng/g
5 | CCCCCCCCC(CCCCCC)C(=O)OCCCCCCN(CCCCCCOC(=O)C(CCCCCC)CCCCCCCC)CCN(C)CCCC(=O)N(CCCC)CCCC (centres unmarked) [Compound I-8, ((2-((4-(dibutylamino)-4-oxobutyl)(methyl)amino)ethyl)azanediyl)bis(hexane-6,1-diyl)bis(2-hexyldecanoate)] | 6.13 |  |  | 16110 ± 2654 ng/g | 56927 ± 16125 ng/g | 
6 | CCCCCCCCC(CCCCCC)COC(=O)CCCCCCCN(CCCCCCCC(=O)OCC(CCCCCC)CCCCCCCC)CCN(C)CCCCNC(=O)CCCCCCC (centres unmarked) [Compound I-5, bis(2-hexyldecyl) 8,8′-((2-(methyl(4-octanamidobutyl)amino)ethyl)azanediyl)dioctanoate] | 6.68 |  |  | 6538 ± 11243 ng/g | 43609 ± 9207 ng/g | 
7 | CCCCCCCCCCNC(=O)CCCCCN(C)CCN(CCCCCC(=O)OCC(CCCCCC)CCCCCCCC)CCCCCC(=O)OCC(CCCCCC)CCCCCCCC (centres unmarked) [Compound I-7, bis(2-hexyldecyl) 6,6′-((2-((6-(decylamino)-6-oxohexyl)(methyl)amino)ethyl)azanediyl)dihexanoate] | 6.57 |  |  | 10812 ± 2335 ng/g | 44836 ± 12026 ng/g | 

The next lines start with results.

Row | pKa [1] | SMILES | Serum IgG @ 0.3 mg/kg (human IgG in mouse serum) | Serum IgG @ 1.0 mg/kg (human IgG in mouse serum) | Liver Luc @ 0.3 mg/kg [2] | Liver Luc @ 1.0 mg/kg [2] | Liver Luc, determined at 0.5 mg/kg ([2]; 0.5 mg mRNA/kg (footnote *))
8 | 6.45 | CCCCCCCCC(CCCCCC)C(=O)OCCCCCCN(CCCCCCOC(=O)C(CCCCCC)CCCCCCCC)CCCCN(C)CCCCC(=O)N(CCCCCC)CCCCCC (centres unmarked) [Compound I-47, ((4-((5-(dihexylamino)-5-oxopentyl)(methyl)amino)butyl)azanediyl)bis(hexane-6,1-diyl)bis(2-hexyldecanoate)] | 15.3 ± 3.7 µg/mL | 61.8 ± 11.5 µg/mL |  |  | 
9 | 6.37 | CCCCCCCCCCN(CCCCCCCCCC)C(=O)CCCCN(C)CCCCN(CCCCCCOC(=O)C(CCCCCC)CCCCCCCC)CCCCCCOC(=O)C(CCCCCC)CCCCCCCC (centres unmarked) [Compound I-48, ((4-((5-(didecylamino)-5-oxopentyl)(methyl)amino)butyl)azanediyl)bis(hexane-6,1-diyl)bis(2-hexyldecanoate)] | 4.4 ± 1.1 µg/mL | 21.8 ± 5.0 µg/mL |  |  | 
10 | 6.33 | CCCCCCCCC(CCCCCC)COC(=O)CCCCCN(CCCCCC(=O)OCC(CCCCCC)CCCCCCCC)CCN(C)CCCCCC(=O)N(C)CCCCCCCC (centres unmarked) [Compound I-10, bis(2-hexyldecyl) 6,6′-((2-(methyl(6-(methyl(octyl)amino)-6-oxohexyl)amino)ethyl)azanediyl)dihexanoate] |  |  | 9794 ± 1750 ng/g | 43271 ± 18103 ng/g | 
11 | 6.71 | CCCCCCCCC(CCCCCC)C(=O)OCCCCCCN(CCCCCCOC(=O)C(CCCCCC)CCCCCCCC)CCN(C)CCCC(=O)N(CC)CC (centres unmarked) [Compound I-52, 6-((2-((3-(N,N-diethylcarbamoyl)propyl)-n-methylamino)ethyl)(6-(1-hexylnonylcarbonyloxy)hexyl)amino)hexyl 2-hexyldecanoate] | 6.4 ± 2.6 µg/mL | 35.4 ± 11.1 µg/mL |  |  | 
12 | 6.27 | CCCCCCCCC(CCCCCC)COC(=O)CCCCCN(CCCCCC(=O)OCC(CCCCCC)CCCCCCCC)CCN(C)CCCCCC(=O)NCC(CC)CCCC (centres unmarked) [Compound I-11, bis(2-hexyldecyl) 6,6′-((2-((6-((2-ethylhexyl)amino)-6-oxohexyl)(methyl)amino)ethyl)azanediyl)dihexanoate] |  |  | 16601 ± 5871 ng/g | 66075 ± 18868 ng/g | 
